Results on 1 substance are retold here after patent US20250195567A1, “COMPOSITIONS FOR REMOVING MICROBIAL BIOFILM OR INHIBITING FORMATION THEREOF” (Prudentix Ltd., priority 2022, published 2025).

A short description of data set [1]: pH of GLDA-PolyP combinations. The class given is physicochemical. The settings on record: No PolyP. The procedure: While acidic or basic environment in solution breakdown biofilm, it may be harmful for the human tissue at the periodontal pockets. In this experiment we thus measured the pH levels of the GLDA/PolyP combination that were tested in Example 5.
Data set [2] has as its system biofilm made of Streptococcus sanguis, Actinomyces naeslundii, Porphyromonas gingivalis, and Fusobacterium nucleatum. Description: Removal of mature biofilm grown on hydroxyapatite or titanium disks, live/dead staining. Format: cell-based. The settings on record: hydroxyapatite discs, GLDA alone at different concentrations. How it is done: Following assay calibration, biofilm made of Streptococcus sanguis, Actinomyces naeslundii, Porphyromonas gingivalis, and Fusobacterium nucleatum was grown on tooth surfaces (hydroxyapatite (HA) disks) or dental implants surfaces (sandblast acid-etched titanium surfaces, SLA).
The mature biofilms were washed in saline (control) or saline with PolyP (at 8% to 0.2% w/v) for 45 min at 37° C. The biofilm that remained on the disks was stained with live/dead fluorescent stains and analyzed using a florescence microscope. Results are shown as representative microscopic images (FIG. 1), and as a quantification of the florescence intensity in relative florescence units (RFU) (FIGS. 2-3).
In this experiment, the ability of the chelating agent GLDA to clear biofilm, either alone or in combination with PolyP at 0.02% and 0.5%, was tested. As described in Example 4, biofilm was grown and treated with the different solutions, and the residual biofilm was stained and quantified. The results are shown as a quantification of the florescence intensity in relative florescence units (RFU) (FIGS. 4-5).

In the case of “Tetrasodium N,N-bis(carboxymethyl)-L-glutamate [GLDA]”, the figures for the pH in data set [1] (GLDA 0.05%), in data set [1] (GLDA 0.3%) and in data set [1] (GLDA 1%) were 7, 9.6 and 11.5, respectively. Besides, the “residual biofilm (fluorescence intensity)” value in data set [2] is listed as “dose dependent efficacy”.
